Where two headings read alike, the source gives them in different places.
What was measured:
HUVECs = assay: Tube formation (tubulogenesis) assay in HUVECs, 18 h; assay type: cell-based, human; conditions: Homo sapiens, HUVEC, 18 h, HUVECs; for activity at 0.1 µM: 0.10 µM; for minimal effective concentration: top concentration 100.00 µM
How it was run: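 HUVECs (passage 1–5) seeded on reduced-growth-factor basement membrane and exposed to compounds overnight at 37°C, 5% CO2, in 2× maintenance medium with 12.5 ng/mL VEGF; 0.5% DMSO vehicle. Calcein AM-stained tube networks imaged and analysed; vehicle-normalized readouts fit to four-parameter logistic, POD set at one SD of vehicle means.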

[1] = system: iCell endothelial cells (human iPSC-derived ECs); assay: High-content imaging cytotoxicity in iCell endothelial cells, 24 h; assay type: cell-based; conditions: Homo sapiens, Endothelial cell, iPSC-EC, 24 hr; for viability at 0.1 µM / activity at 0.1 µM: 0.10 µM; for minimal effective concentration: top concentration 100.00 µM
How it was run: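 Human iPSC-derived endothelial cells (passages 1–5) were grown to a fibronectin-coated monolayer, then exposed 24 h at 37 °C with 0.5% DMSO vehicle. Staining was Hoechst 33342, MitoTracker Orange and calcein AM, read by high-content imaging. Point of departure came from 4-parameter logistic fits, with a 1-SD vehicle cutoff and 100 µM as the top concentration.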

[2] = 0.00 µM = 100.00, read-out: huvec.mtl.18hr
[3] = 0.00 µM = 100.00, read-out: huvec.tlps.18hr
[4] = 0.00 µM = 100.00, read-out: huvec.tta.18hr
[5] = 0.00 µM = 100.00, read-out: huvec.ttl.18hr
[6] = 0.00 µM control = 100.00, read-out: endo.cyto.24hr
[7] = 0.00 µM control = 100.00, read-out: endo.mito.24hr
[8] = 0.00 µM control = 100.00, read-out: endo.mitoint.24hr
[9] = 0.00 µM control = 100.00, read-out: endo.nma.24hr
[10] = 0.00 µM control = 100.00, read-out: endo.tc.24hrs

Clc1cccc(-c2cccc(Cl)c2)c1 [PCB11]
activity at 0.01 µM (HUVECs; [2]): 107% | activity at 0.01 µM (HUVECs; [3]): 122% | activity at 0.01 µM (HUVECs; [4]): 138% | activity at 0.01 µM (HUVECs; [5]): 122% | activity at 0.1 µM (HUVECs; [2]): 113% | activity at 0.1 µM (HUVECs; [3]): 126% | activity at 0.1 µM (HUVECs; [4]): 133% | activity at 0.1 µM (HUVECs; [5]): 124% | activity at 1 µM (HUVECs; [2]): 109% | activity at 1 µM (HUVECs; [3]): 130% | activity at 1 µM (HUVECs; [4]): 157% | activity at 1 µM (HUVECs; [5]): 140% | activity at 10 µM (HUVECs; [2]): 97.8% | activity at 10 µM (HUVECs; [3]): 94.6% | activity at 10 µM (HUVECs; [4]): 86.1% | activity at 10 µM (HUVECs; [5]): 87.2% | activity at 100 µM (HUVECs; [2]): 81.4% | activity at 100 µM (HUVECs; [3]): 77.5% | activity at 100 µM (HUVECs; [4]): 85% | activity at 100 µM (HUVECs; [5]): 78.8% | minimal effective concentration (HUVECs; read-out: huvec.mtl.18hr POD): 100 µM | minimal effective concentration (HUVECs; read-out: huvec.tlps.18hr POD): 41.8 µM | minimal effective concentration (HUVECs; read-out: huvec.tta.18hr POD): 100 µM | minimal effective concentration (HUVECs; read-out: huvec.ttl.18hr POD): 100 µM | viability at 0.01 µM [1, 6]: 99.3% | activity at 0.01 µM [1, 7]: 99.6% | activity at 0.01 µM [1, 8]: 100% | activity at 0.01 µM [1, 9]: 101% | viability at 0.01 µM [1, 10]: 99.3% | viability at 0.1 µM [1, 6]: 95.3% | activity at 0.1 µM [1, 7]: 96% | activity at 0.1 µM [1, 8]: 97.8% | activity at 0.1 µM [1, 9]: 102% | viability at 0.1 µM [1, 10]: 95.3% | viability at 1 µM [1, 6]: 96.6% | activity at 1 µM [1, 7]: 97% | activity at 1 µM [1, 8]: 96.1% | activity at 1 µM [1, 9]: 99.7% | viability at 1 µM [1, 10]: 96.6% | viability at 10 µM [1, 6]: 99% | activity at 10 µM [1, 7]: 99.4% | activity at 10 µM [1, 8]: 107% | activity at 10 µM [1, 9]: 100% | viability at 10 µM [1, 10]: 99% | viability at 100 µM [1, 6]: 104% | activity at 100 µM [1, 7]: 105% | activity at 100 µM [1, 8]: 92.6% | activity at 100 µM [1, 9]: 100% | viability at 100 µM [1, 10]: 104% | minimal effective concentration ([1]; read-out: endo.cyto.24hr POD): 100 µM | minimal effective concentration ([1]; read-out: endo.mito.24hr POD): 100 µM | minimal effective concentration ([1]; read-out: endo.mitoint.24hr POD): 100 µM | minimal effective concentration ([1]; read-out: endo.nma.24hr POD): 100 µM | minimal effective concentration ([1]; read-out: endo.tc.24hrs POD): 100 µM

Reference: PMC7377239, “Cardiovascular Effects of Polychlorinated Biphenyls and Their Major Metabolites” (Environmental Health Perspectives, 2020)
